PubChem BioAssay (NCI)
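GI50: concentration for 50% inhibition of growth. Definition used: TGI = concentration required for complete inhibition of growth.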

Tests used:
Test in all cases: DTP human tumour cell line panel, 384-well format
DU-145 prostate = system: DU-145 prostate
HT29 colon = system: HT29 colon
TK-10 renal = system: TK-10 renal
OVCAR-8 ovarian = system: OVCAR-8 ovarian
UACC-257 melanoma = system: UACC-257 melanoma
SW-620 colon = system: SW-620 colon
HOP-62 NSCLC = system: HOP-62 NSCLC
SF-539 CNS = system: SF-539 CNS
NCI-H226 lung = system: NCI-H226 lung
OVCAR-4 ovarian = system: OVCAR-4 ovarian
K-562 leukemia = system: K-562 leukemia
CAKI-1 renal = system: CAKI-1 renal
IGROV1 ovarian = system: IGROV1 ovarian
A549 NSCLC = system: A549 NSCLC
HOP-92 NSCLC = system: HOP-92 NSCLC
SK-MEL-2 melanoma = system: SK-MEL-2 melanoma
MCF7 breast = system: MCF7 breast
MDA-MB-435 melanoma = system: MDA-MB-435 melanoma
NCI-H522 lung = system: NCI-H522 lung
BT-549 breast = system: BT-549 breast
SN12C renal = system: SN12C renal
OVCAR-3 ovarian = system: OVCAR-3 ovarian
SR leukemia = system: SR leukemia
EKVX NSCLC = system: EKVX NSCLC
HCT-116 colon = system: HCT-116 colon
SF-268 CNS = system: SF-268 CNS
UO-31 renal = system: UO-31 renal
U251 glioblastoma = system: U251 glioblastoma
M14 melanoma = system: M14 melanoma
SF-295 CNS = system: SF-295 CNS
786-0 renal = system: 786-0 renal
HCT-15 colon = system: HCT-15 colon
HS 578T breast = system: HS 578T breast
ACHN renal = system: ACHN renal
UACC-62 melanoma = system: UACC-62 melanoma
NCI-H322M lung = system: NCI-H322M lung
SNB-19 CNS = system: SNB-19 CNS
RXF 393 renal = system: RXF 393 renal
T-47D breast = system: T-47D breast
MDA-MB-231 breast = system: MDA-MB-231 breast
HL-60(TB) leukemia = system: HL-60(TB) leukemia
MDA-MB-468 breast = system: MDA-MB-468 breast
MALME-3M melanoma = system: MALME-3M melanoma
OVCAR-5 ovarian = system: OVCAR-5 ovarian
NCI-H23 lung = system: NCI-H23 lung
SK-MEL-5 melanoma = system: SK-MEL-5 melanoma
KM12 colon = system: KM12 colon
MOLT-4 leukemia = system: MOLT-4 leukemia
COLO 205 colon = system: COLO 205 colon
SK-MEL-28 melanoma = system: SK-MEL-28 melanoma
SK-OV-3 ovarian = system: SK-OV-3 ovarian
SNB-75 CNS = system: SNB-75 CNS
A498 renal = system: A498 renal
PC-3 prostate = system: PC-3 prostate
NCI-H460 NSCLC = system: NCI-H460 NSCLC

Q: What does the source list for O=C(Nc1ccc2[nH]nc(-c3ccncc3)c2c1)[C@@H]1CCN(CC(=O)N2CCN(c3ccc(-c4ncccn4)cc3)CC2)C1?
A: GI50 (DU-145 prostate): 4.59 µM; TGI (DU-145 prostate): > 100 µM; GI50 (HT29 colon): 0.069 µM; TGI (HT29 colon): 14.2 µM; GI50 (TK-10 renal): 0.853 µM; TGI (TK-10 renal): > 100 µM; GI50 (OVCAR-8 ovarian): 2.83 µM; TGI (OVCAR-8 ovarian): 15 µM; GI50 (UACC-257 melanoma): 0.0268 µM; TGI (UACC-257 melanoma): 0.271 µM; GI50 (SW-620 colon): 0.0863 µM; TGI (SW-620 colon): > 100 µM; GI50 (HOP-62 NSCLC): 0.661 µM; TGI (HOP-62 NSCLC): 17.4 µM; GI50 (SF-539 CNS): 0.69 µM; TGI (SF-539 CNS): 9.72 µM; GI50 (NCI-H226 lung): 0.735 µM; TGI (NCI-H226 lung): 14.6 µM; GI50 (OVCAR-4 ovarian): 48.4 µM; TGI (OVCAR-4 ovarian): > 100 µM; GI50 (K-562 leukemia): 0.273 µM; TGI (K-562 leukemia): 12.8 µM; GI50 (CAKI-1 renal): 0.507 µM; TGI (CAKI-1 renal): 20.6 µM; GI50 (IGROV1 ovarian): 0.438 µM; TGI (IGROV1 ovarian): 35.7 µM; GI50 (A549 NSCLC): 0.628 µM; TGI (A549 NSCLC): > 100 µM; GI50 (HOP-92 NSCLC): 0.417 µM; TGI (HOP-92 NSCLC): 2.18 µM; GI50 (SK-MEL-2 melanoma): 0.0375 µM; TGI (SK-MEL-2 melanoma): 0.192 µM; GI50 (MCF7 breast): 11.6 µM; TGI (MCF7 breast): 26.9 µM; GI50 (MDA-MB-435 melanoma): 0.0652 µM; TGI (MDA-MB-435 melanoma): > 100 µM; GI50 (NCI-H522 lung): 9.33 µM; TGI (NCI-H522 lung): 22.1 µM; GI50 (BT-549 breast): 2.71 µM; TGI (BT-549 breast): 16.6 µM; GI50 (SN12C renal): 2.28 µM; TGI (SN12C renal): > 100 µM; GI50 (OVCAR-3 ovarian): 19.8 µM; TGI (OVCAR-3 ovarian): > 100 µM; GI50 (SR leukemia): 2.68 µM; TGI (SR leukemia): 12 µM; GI50 (EKVX NSCLC): 2.28 µM; TGI (EKVX NSCLC): 83 µM; GI50 (HCT-116 colon): 0.0687 µM; TGI (HCT-116 colon): 1.26 µM; GI50 (SF-268 CNS): 17.9 µM; TGI (SF-268 CNS): 73.4 µM; GI50 (UO-31 renal): 2.28 µM; TGI (UO-31 renal): 16.1 µM; GI50 (U251 glioblastoma): 1.79 µM; TGI (U251 glioblastoma): 22.2 µM; GI50 (M14 melanoma): 0.0253 µM; TGI (M14 melanoma): 0.198 µM; GI50 (SF-295 CNS): 13.1 µM; TGI (SF-295 CNS): 37.8 µM; GI50 ([…]-0 renal): 9.92 µM; TGI (786-0 renal): 23.6 µM; GI50 (HCT-15 colon): 5.45 µM; TGI (HCT-15 colon): 29.1 µM; GI50 (HS 578T breast): 10.8 µM; TGI (HS 578T breast): 36 µM; GI50 (ACHN renal): 8.76 µM; TGI (ACHN renal): > 100 µM; GI50 (UACC-62 melanoma): 0.0166 µM; TGI (UACC-62 melanoma): 0.385 µM; GI50 (NCI-H322M lung): 0.623 µM; TGI (NCI-H322M lung): 31.6 µM; GI50 (SNB-19 CNS): > 100 µM; TGI (SNB-19 CNS): > 100 µM; GI50 (RXF 393 renal): 1.05 µM; TGI (RXF 393 renal): 3.55 µM; GI50 (T-47D breast): 2.96 µM; TGI (T-47D breast): 9.04 µM; GI50 (MDA-MB-231 breast): 0.315 µM; TGI (MDA-MB-231 breast): 32.9 µM; GI50 (HL-60(TB) leukemia): 0.0163 µM; TGI (HL-60(TB) leukemia): 1.26 µM; GI50 (MDA-MB-468 breast): 3.55 µM; TGI (MDA-MB-468 breast): 33.8 µM; TGI (MALME-3M melanoma): 0.0442 µM; GI50 (OVCAR-5 ovarian): 0.16 µM; TGI (OVCAR-5 ovarian): > 100 µM; GI50 (NCI-H23 lung): 0.0571 µM; TGI (NCI-H23 lung): 0.678 µM; GI50 (SK-MEL-5 melanoma): 0.0781 µM; TGI (SK-MEL-5 melanoma): 4.43 µM; GI50 (KM12 colon): 5.61 µM; TGI (KM12 colon): > 100 µM; GI50 (MOLT-4 leukemia): 1.42 µM; TGI (MOLT-4 leukemia): 3 µM; GI50 (COLO 205 colon): 0.0281 µM; TGI (COLO 205 colon): 0.43 µM; GI50 (SK-MEL-28 melanoma): 0.0186 µM; TGI (SK-MEL-28 melanoma): 0.174 µM; GI50 (SK-OV-3 ovarian): 20.3 µM; TGI (SK-OV-3 ovarian): 90.7 µM; GI50 (SNB-75 CNS): 11.6 µM; TGI (SNB-75 CNS): 25.4 µM; GI50 (A498 renal): 1.78 µM; TGI (A498 renal): 10 µM; GI50 (PC-3 prostate): 5.37 µM; TGI (PC-3 prostate): 20.5 µM; GI50 (NCI-H460 NSCLC): 0.379 µM; TGI (NCI-H460 NSCLC): 17.6 µM
